Results from ChEMBL document CHEMBL3046336, “Assessment of the impact of insecticides on Anagrus nilaparvatae (Pang et Wang) (Hymenoptera: Mymanidae), an egg parasitoid of the rice planthopper, Nilaparvata lugens (Hemiptera: Delphacidae)” (Crop Prot, 2008).

Tests used:
[1] = Acute contact toxicity against adult Anagrus nilaparvatae assessed as dead parasitoid wasps compound treated for 1 hr measured after 8 hr wash-out period
[2] = Residual toxicity against compound treated rice leaves-fed adult Anagrus nilaparvatae assessed as mortality measured on day 0 post insecticide treatment to plant; conditions: in vivo, oral
[3] = Acute oral toxicity against female adult Anagrus nilaparvatae in petridish under laboratory conditions assessed as mortality compound treated as emulsible concentrate with acetone and Triton X-100 measured after 1 to 8 hr; conditions: in vivo
[4] = Chronic toxicity against female adult Anagrus nilaparvatae in petridish under laboratory conditions assessed as reduction in fecundity compound treated as emulsible concentrate with acetone and […] relative to untreated control; parameters: scale not given: the % may be the effect or the level left
[5] = Chronic toxicity against female adult Anagrus nilaparvatae in petridish under laboratory conditions assessed as reduction in longetivity compound treated as emulsible concentrate with acetone and Triton X-100 relative to untreated control; parameters: scale not given: the % may be the effect or the level left
[6] = Residual toxicity against compound treated rice leaves-fed adult Anagrus nilaparvatae assessed as mortality measured on day 7 post insecticide treatment to plant; conditions: in vivo
[7] = Acute oral toxicity against female adult Anagrus nilaparvatae in petridish under laboratory conditions assessed as mortality compound treated as emulsible concentrate with acetone and Triton X-100 measured after 8 hr; conditions: in vivo
[8] = Acute oral toxicity against female adult Anagrus nilaparvatae in petridish under laboratory conditions assessed as mortality compound treated as emulsible concentrate with acetone and Triton X-100 measured after 2 hr; conditions: in vivo
[9] = Acute oral toxicity against female adult Anagrus nilaparvatae in petridish under laboratory conditions assessed as mortality compound treated as emulsible concentrate with acetone and Triton X-100 measured after 4 hr; conditions: in vivo

Row | SMILES | LC50 [1] [mgAi/L] | mortality at 7 day ([6]; oral) [%] | mortality at 8 h [7] [%] | also measured
1 | CC[C@H](C)[C@H]1O[C@]2(C=C[C@@H]1C)C[C@@H]1C[C@@H](C/C=C(\C)[C@@H](O[C@H]3C[C@H](OC)[C@@H](O[C@H]4C[C@H](OC)[C@@H](O)[C@H](C)O4)[C@H](C)O3)[C@@H](C)/C=C/C=C3\CO[C@@H]4[C@H](O)C(C)=C[C@@H](C(=O)O1)[C@]34O)O2.CO[C@H]1C[C@H](O[C@H]2[C@H](C)O[C@@H](O[C@@H]3/C(C)=C/C[C@@H]4C[C@@H](C[C@]5(C=C[C@H](C)[C@@H](C(C)C)O5)O4)OC(=O)[C@@H]4C=C(C)[C@@H](O)[C@H]5OC/C(=C\C=C\[C@@H]3C)[C@]54O)C[C@@H]2OC)O[C@@H](C)[C@@H]1O [ABAMECTIN] | 8.499 | – | – | –
2 | CC(C)N1C(=O)N(c2ccccc2)CS/C1=N\C(C)(C)C [BUPROFEZIN] | > 1000 | – | – | mortality at 0 day [2]: 1.1%; mortality [3]: 29.4%
3 | O=C(NC(=O)c1c(F)cccc1F)Nc1cc(Cl)c(Oc2ncc(C(F)(F)F)cc2Cl)c(Cl)c1 [CHLORFLUAZURON] | > 1000 | – | – | Activity [4]: 49%; mortality [3]: 4%; Activity [5]: 29%
4 | CCOP(=S)(OCC)Oc1nc(Cl)c(Cl)cc1Cl [CHLORPYRIFOS] | 0.002 | < 10 | 100 | –
5 | COP(=O)(OC)OC=C(Cl)Cl [DICHLORVOS] | 15.946 | – | 100 | mortality at 2 h [8]: 100%
6 | N#Cc1nn(-c2c(Cl)cc(C(F)(F)F)cc2Cl)c(N)c1[S+]([O-])C(F)(F)F (configuration not stated) [FIPRONIL] | 0.18 | 50 | 100 | –
7 | Cc1cc(C)cc(C(=O)N(NC(=O)c2ccc3c(c2C)OC(C)C3)C(C)(C)C)c1 (configuration not stated) [FUXIAN] | > 1000 | – | – | Activity [4]: 47%; mortality [3]: 1.1%; Activity [5]: 29%
8 | O=C(NC(=O)c1c(F)cccc1F)Nc1cc(Cl)c(OC(F)(F)C(F)F)c(Cl)c1 [HEXAFLUMURON] | > 1000 | – | – | Activity [4]: 28%; mortality [3]: 1.3%; Activity [5]: 24%
9 | O=[N+]([O-])NC1=NCCN1Cc1ccc(Cl)nc1 [IMIDACLOPRID] | 0.021 | 80.7 | – | mortality at 0 day [2]: 97.6%; Activity [9]: Toxic
10 | CNC(=O)Oc1ccccc1C(C)C [ISOPROCARB] | 1.071 | – | – | Activity [9]: Toxic
11 | COP(N)(=O)SC (configuration not stated) [METHAMIDOPHOS] | – | < 10 | 100 | –
12 | CCOc1ccc([Si](C)(C)CCCc2ccc(F)c(Oc3ccccc3)c2)cc1 [SILAFLUOFEN] | 14.22 | 1.1 | 37.6 | –
13 | CN1COCN(Cc2cnc(Cl)s2)/C1=N\[N+](=O)[O-] [THIAMETHOXAM] | 0.52 | 66.8 | – | Activity [9]: Toxic
14 | CCOP(=S)(OCC)Oc1ncn(-c2ccccc2)n1 [TRIAZOPHOS] | 1.253 | – | 100 | mortality at 7 day [6]: 54.6%
